Assay results from patent US20130344139A1, “METHOD OF REDUCING CONTACT LENS INTOLERANCE WITH NON-DRYING ANTIHISTAMINES” (priority 2005, published 2013).

Key:
[1] = test system: muscarinic receptors (M1-M5); test: Muscarinic receptor signaling, statements for M1-M5 together; conditions: for inhibition of muscarinic receptor signaling (in words): stimulation with 500 nM acetylcholine; for IC50 at muscarinic receptors (in words): lack of anticholinergic properties
Description: (§1) C6 rat glioma and CHO-K1 (Chinese hamster ovary) cells were obtained from the American Type Culture Collection (ATCC, Manassas, Va.). […] Recombinant cell lines stably expressing independently each of the five human muscarinic receptors (M1, M2, M3, M4 or M5) were established by transfecting C6 rat glioma cells with the plasmid pcDNA3.1(+) containing the DNA sequence encoding the muscarinic receptor subtypes. Moreover, two of the muscarinic receptor subtypes (M2 and M4) that signal through the Gαi protein were expressed in C6 cells that also expressed a functional chimeric Gq/i protein allowing these receptors to signal via calcium mobilization.

[2] = target: human muscarinic receptor M3 (Homo sapiens, UniProt P20309); test: Muscarinic receptor potency, C6 cells expressing recombinant M3
Description: as §1

[3] = target: T1, human muscarinic receptor M5 (Homo sapiens, UniProt P08912); test: Muscarinic receptor potency, C6 cells expressing recombinant M5
T1 sequence (P08912 1-532): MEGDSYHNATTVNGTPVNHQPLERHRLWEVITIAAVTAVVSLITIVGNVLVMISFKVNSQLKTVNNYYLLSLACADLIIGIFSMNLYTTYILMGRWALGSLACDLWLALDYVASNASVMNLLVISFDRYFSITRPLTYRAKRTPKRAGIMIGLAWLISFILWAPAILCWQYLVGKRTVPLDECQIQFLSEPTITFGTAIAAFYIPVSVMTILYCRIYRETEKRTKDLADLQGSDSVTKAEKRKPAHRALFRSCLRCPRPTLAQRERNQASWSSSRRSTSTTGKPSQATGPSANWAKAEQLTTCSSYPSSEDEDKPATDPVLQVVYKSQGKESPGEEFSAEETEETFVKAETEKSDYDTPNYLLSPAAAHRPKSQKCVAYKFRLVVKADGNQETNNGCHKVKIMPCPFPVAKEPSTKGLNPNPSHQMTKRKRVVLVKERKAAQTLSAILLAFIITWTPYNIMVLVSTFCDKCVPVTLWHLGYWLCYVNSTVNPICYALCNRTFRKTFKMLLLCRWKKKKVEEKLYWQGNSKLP
Description: as §1

[4] = target: T2, human muscarinic receptor M4 (Homo sapiens, UniProt P08173); test: Muscarinic receptor potency, C6 cells expressing recombinant M4 (chimeric Gq/i)
T2 sequence (P08173 1-479): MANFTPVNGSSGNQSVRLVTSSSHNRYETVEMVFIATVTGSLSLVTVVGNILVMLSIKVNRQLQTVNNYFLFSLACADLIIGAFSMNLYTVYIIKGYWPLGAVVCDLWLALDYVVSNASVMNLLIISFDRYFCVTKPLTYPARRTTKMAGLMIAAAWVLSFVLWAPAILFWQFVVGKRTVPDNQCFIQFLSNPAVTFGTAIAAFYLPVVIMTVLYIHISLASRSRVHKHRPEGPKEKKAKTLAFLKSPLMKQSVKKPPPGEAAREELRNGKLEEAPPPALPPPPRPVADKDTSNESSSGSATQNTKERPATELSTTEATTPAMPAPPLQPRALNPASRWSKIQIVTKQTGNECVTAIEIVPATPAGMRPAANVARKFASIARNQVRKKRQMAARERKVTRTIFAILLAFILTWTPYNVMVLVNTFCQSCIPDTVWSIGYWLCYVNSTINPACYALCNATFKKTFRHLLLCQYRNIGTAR
Description: as §1

[5] = target: endogenous M3 receptor (1321N1) (Homo sapiens, UniProt P20309)
[6] = target: human histamine H1 receptor (Homo sapiens, UniProt P35367); test: H1 receptor potency: inhibition of histamine stimulation in CHO-K1 H1 cells
Description: as §1
Dose response curves were generated.

healthy individuals = conditions: systemic antihistamines; increased corneal and conjunctival staining, decreased TFBUT, increased ocular discomfort; cited from earlier work
C57BL6 mice = test: Effect of topical epinastine and olopatadine on tear volume in mice (phenol red cotton thread); type: in vivo, mouse; conditions: for tear volume compared with untreated group: olopatadine: 15 min and 45 min (P<0.05); for overall effect on tear volume / tear secretion (conclusion): topical, mice
Procedure: After two and four days of treatment, tear volume measurements were made with a phenol red impregnated cotton thread (Zone-Quick, Menicon, San Mateo, Calif.) 15, 45, 90, 120 and 240 min after the last instillation of the drug. A baseline tear measurement was performed before initiation of drug therapy. The untreated group had tear volume measurements done at the same time points. The length of tear wetting on the cotton thread was measured with a Nikon SMZ1500 microscope using MetaVue© software. A standard curve of cotton thread uptake was made using a glass micropipette with a known volume of a basic solution. Mouse tear volumes were calculated using regression analysis calculated by Microsoft® Excel. ANOVA with Tukey's Multiple Comparison Test was used for statistical analysis using GraphPad Prism® software.

[7] = test system: contact lens-wearing subjects; test: Effect of topical epinastine on contact lens-wearing, contact lens intolerant subjects; type: in vivo
Description: This was a multi-center, open-label, randomized study that compared (a) epinastine 0.05% ophthalmic solution (ELESTAT®, Inspire Pharmaceuticals, Inc., Durham, N.C.) plus rewetting drops (Walgreens Rewetting Drops, Walgreens, Deerfield Ill.) with (b) rewetting drops alone. The subjects wore contact lenses, but were contact lens intolerant. The study started during the spring allergy season because seasonal allergic conjunctivitis may exacerbate the symptoms of contact lens intolerance.
146 subjects had 3 clinic visits over a 2-week period. The first was the screening visit to determine eligibility. Following that, subjects completed a daily diary card to assess compliance and capture baseline values during a 5-7 day run-in period with rewetting drops. At the next visit, each subject was dispensed a new pair of contact lenses and randomly assigned to receive either (a) epinastine 0.05% ophthalmic solution BID (twice a day) plus rewetting drops (75 subjects), or (b) rewetting drops only as needed, but at least twice a day (71 subjects), for a 5-7 day treatment period. During the treatment period, subjects recorded the length of time that contact lens wear was comfortable, the total time of wear, ocular itch, overall ocular comfort, and use of rewetting drops. Subjects receiving epinastine were instructed to remove contact lenses prior to instillation, allow at least 10 minutes before reinsertion, and allow 15 minutes before administering rewetting drops. Each instillation was to occur 8-12 hours after the previous one, with the evening application coming after removal of lenses for the day. The final visit came after the 5-7 day treatment period and allowed collection of the data and unused study medication.
Ocular comfort was scored on a scale of 0-4, with 0=very comfortable, 1=somewhat comfortable, 2=mildly uncomfortable, 3=moderately uncomfortable, and 4=very uncomfortable.
Ocular itch was scored on a scale of 0-4, with 0=none, 1=mild, 2=moderate, 3=severe, and 4=extremely severe.
Baseline values presented are the average of all entries recorded during the run-in phase of the study. P values are based on an ANCOVA model that included the treatment, the site, and the baseline value. Values for Day 1 are not included in the analysis for contact lens wear time, ocular itching, ocular comfort, and rewetting drop usage because they were a mixture of run-in and treatment period values.

allergic conjunctivitis = conditions: in vivo; cited from earlier work
[8] = target: T3, human muscarinic receptor M2 (Homo sapiens, UniProt P08172); test: Muscarinic receptor potency, C6 cells expressing recombinant M2 (chimeric Gq/i)
T3 sequence (P08172 1-466): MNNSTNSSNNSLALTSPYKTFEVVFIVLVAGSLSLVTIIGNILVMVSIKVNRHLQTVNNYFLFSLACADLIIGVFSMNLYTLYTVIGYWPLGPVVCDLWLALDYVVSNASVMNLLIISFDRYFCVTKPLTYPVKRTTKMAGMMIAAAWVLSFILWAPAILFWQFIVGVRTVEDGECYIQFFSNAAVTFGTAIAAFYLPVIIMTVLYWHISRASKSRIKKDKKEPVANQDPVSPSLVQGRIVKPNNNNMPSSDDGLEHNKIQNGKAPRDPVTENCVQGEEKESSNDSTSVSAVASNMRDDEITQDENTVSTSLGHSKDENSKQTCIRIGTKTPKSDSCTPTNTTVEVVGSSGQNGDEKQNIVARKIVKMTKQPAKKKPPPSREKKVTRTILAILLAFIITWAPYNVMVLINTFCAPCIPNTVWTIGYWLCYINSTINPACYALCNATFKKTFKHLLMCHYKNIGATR
Description: as §1

human subjects = test: Ocular drying effect of topical epinastine and systemic loratadine, crossover study (fluorophotometry, staining, TFBUT); conditions: after 4 days of treatment
[9] = target: T4, human muscarinic receptor M1 (Homo sapiens, UniProt P11229); test: cell-based
T4 sequence (P11229 1-460): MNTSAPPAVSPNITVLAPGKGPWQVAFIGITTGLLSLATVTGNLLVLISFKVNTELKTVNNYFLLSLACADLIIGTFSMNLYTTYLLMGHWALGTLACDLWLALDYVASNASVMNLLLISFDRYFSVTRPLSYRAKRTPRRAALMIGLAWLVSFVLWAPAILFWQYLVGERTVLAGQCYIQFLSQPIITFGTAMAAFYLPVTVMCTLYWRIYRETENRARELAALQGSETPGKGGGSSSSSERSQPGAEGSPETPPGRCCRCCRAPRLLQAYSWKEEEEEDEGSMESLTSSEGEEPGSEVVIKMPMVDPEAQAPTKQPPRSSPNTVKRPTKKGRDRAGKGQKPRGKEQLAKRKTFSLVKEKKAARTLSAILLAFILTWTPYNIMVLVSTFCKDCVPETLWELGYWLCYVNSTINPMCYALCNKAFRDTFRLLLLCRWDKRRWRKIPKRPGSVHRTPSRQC
Description: as §1

[10] = average during treatment period

Chain of human histamine H1 receptor (P35367 whole entry): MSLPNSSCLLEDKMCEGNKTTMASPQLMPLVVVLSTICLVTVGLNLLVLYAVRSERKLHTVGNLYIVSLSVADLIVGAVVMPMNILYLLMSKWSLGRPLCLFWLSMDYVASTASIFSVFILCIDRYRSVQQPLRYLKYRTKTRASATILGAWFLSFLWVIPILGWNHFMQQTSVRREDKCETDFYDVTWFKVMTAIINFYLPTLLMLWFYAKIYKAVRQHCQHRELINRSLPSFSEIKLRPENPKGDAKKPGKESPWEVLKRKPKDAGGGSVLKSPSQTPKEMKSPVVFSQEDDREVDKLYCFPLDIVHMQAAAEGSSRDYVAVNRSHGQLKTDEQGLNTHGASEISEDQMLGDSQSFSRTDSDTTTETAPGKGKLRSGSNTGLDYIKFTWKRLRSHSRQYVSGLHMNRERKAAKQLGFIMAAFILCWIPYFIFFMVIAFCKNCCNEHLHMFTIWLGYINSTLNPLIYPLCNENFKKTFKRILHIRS
Chain of human muscarinic receptor M3 (P20309 whole entry): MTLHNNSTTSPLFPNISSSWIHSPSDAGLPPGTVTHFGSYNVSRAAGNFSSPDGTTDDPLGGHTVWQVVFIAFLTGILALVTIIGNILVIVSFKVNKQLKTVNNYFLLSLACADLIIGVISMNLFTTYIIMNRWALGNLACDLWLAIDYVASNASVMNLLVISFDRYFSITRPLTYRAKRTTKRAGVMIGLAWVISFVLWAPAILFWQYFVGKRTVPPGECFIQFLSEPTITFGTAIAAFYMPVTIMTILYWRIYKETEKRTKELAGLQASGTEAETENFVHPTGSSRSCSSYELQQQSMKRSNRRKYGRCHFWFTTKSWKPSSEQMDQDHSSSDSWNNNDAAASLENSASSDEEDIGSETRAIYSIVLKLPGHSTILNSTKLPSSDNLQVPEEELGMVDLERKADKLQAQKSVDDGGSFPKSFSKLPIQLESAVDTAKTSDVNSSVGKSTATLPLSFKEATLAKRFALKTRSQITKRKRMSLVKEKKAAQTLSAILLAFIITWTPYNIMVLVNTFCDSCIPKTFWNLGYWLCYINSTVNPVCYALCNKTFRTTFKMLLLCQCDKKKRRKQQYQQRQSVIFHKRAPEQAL
Chain of endogenous M3 receptor (1321N1) (P20309 whole entry): as above

CN1CCCC(n2nc(Cc3ccc(Cl)cc3)c3ccccc3c2=O)CC1 (stereo not shown) [azelastine]
inhibition of muscarinic receptor signaling (in words) [1]: inhibited muscarinic receptor signaling in a dose-dependent manner | IC50 [2]: 16.8 µM | IC50 [3]: 3.26 µM | IC50 [4]: 8.11 µM | IC50 [5]: 10.2 µM

CCOCCn1c(C2CCN(CCc3ccc(C(C)(C)C(=O)O)cc3)CC2)nc2ccccc21 [bilastine]
IC50 at muscarinic receptors (in words) [1]: could not be calculated | IC50 [6]: 0.165 ± 0.044 µM

O=C(O)COCCN1CCN(C(c2ccccc2)c2ccc(Cl)cc2)CC1 (stereo not shown) [cetirizine]
signs and symptoms associated with ocular dryness (healthy individuals): induced signs and symptoms associated with ocular dryness | IC50 at muscarinic receptors (in words) [1]: could not be calculated

NC1=NCC2c3ccccc3Cc3ccccc3N12 (stereo not shown) [epinastine, 3-amino-9,13b-dihydro-1H-dibenz[c,f]-imidazo[5,1-a]azepine]
mean tear volume compared with olopatadine-treated group (C57BL6 mice; after 2 days of treatment, 1 μL twice a day on ocular surface, 15, 45, 90 and 240 minutes, significant at 45 min (P<0.001)): higher mean tear volumes | tear volume compared with untreated group (C57BL6 mice; after 2 days of treatment): increased production of tears over the untreated group, but the difference was not statistically significant | tear volume compared with olopatadine (C57BL6 mice; after 4 days of treatment, significant at 45 min (p<0.05)): volumes were higher at all time points | overall effect on tear volume / tear secretion (conclusion) (C57BL6 mice): not found to inhibit tear secretion, but rather increased tear production | Frequency of rewetting drop use, mean change from baseline [7, 10]: −0.55 | Total contact lens wear, mean change from baseline [7, 10]: 0.35 h | Comfortable contact lens wear, mean change from baseline ([7]; average during treatment period (5-7 days)): 1.33 h | average use of rewetting drops over the entire treatment period ([7]; in vivo): 2.79 uses per day | mean overall eye comfort over the entire treatment period ([7]; score 0-4 (0=very comfortable, 4=very uncomfortable)): 1.43 | Overall eye comfort, mean change from baseline ([7]; score 0-4 (0=very comfortable, 4=very uncomfortable), average during treatment period): −0.48 | average ocular itch score over the entire treatment period ([7]; score on a scale of 0-4): 1.11 | Ocular itch, mean change from baseline ([7]; score on a scale of 0-4, average during treatment period): −0.54 | average total wearing time over the treatment period ([7]; treatment period 5-7 days): 13.22 h | comfortable wear time averaged over the treatment period ([7]; treatment period 5-7 days): 9.21 h | redness and itching associated with allergic conjunctivitis (allergic conjunctivitis): reduces redness and itching | IC50 at muscarinic receptors (in words) [1]: could not be calculated | IC50 [6]: 0.019 ± 0.003 µM

CN1CCC(=C2c3ccccc3CC(=O)c3sccc32)CC1 [ketotifen]
IC50 [3]: 0.138 µM | IC50 [8]: 0.209 µM | IC50 [4]: 0.561 µM

CCOC(=O)N1CCC(=C2c3ccc(Cl)cc3CCc3cccnc32)CC1 [loratadine]
signs and symptoms associated with ocular dryness (healthy individuals): induced signs and symptoms associated with ocular dryness | corneal and conjunctival staining, increase (human subjects): 22% | mean TFBUT (tear film break-up time), decrease (human subjects): 22% | tear flow, decrease (human subjects): 35% | tear volume, decrease (human subjects): 34%

CN(C)CC/C=C1/c2ccccc2COc2ccc(CC(=O)O)cc21 [olopatadine]
tear volume compared with untreated group (C57BL6 mice; after 2 days of treatment): untreated group also had a statistically higher tear volume than the olopatadine group | overall effect on tear volume / tear secretion (conclusion) (C57BL6 mice): significant decrease in tear volume | IC50 [9]: 1.74 µM | inhibition of muscarinic receptor signaling (in words) [1]: inhibited muscarinic receptor signaling in a dose-dependent manner | IC50 [2]: 7.98 µM | IC50 [3]: 10.7 µM | IC50 [8]: 7.67 µM | IC50 [4]: 13.1 µM | IC50 [5]: 41.9 µM
